Source: US12122778B2, “Activating pyruvate kinase R” (Novo Nordisk Health Care AG, priority 2018, dated 2024)

Columns and labels:
[1] = target: PKR(G332S) (Homo sapiens, UniProt P30613, G332S); experiment: Luminescence Biochemical Assay (Kinase Glo Plus), PKR G332S mutant; details: with FBP; for activation at 1.54 µM: 1.54 μM compound, read-out: AC50 LUM KGP FBP % Fold@1.54 μM mean; for AC50: read-out: AC50 LUM KGP FBP AC50 μM gmean (column A); for Emax: read-out: AC50 LUM KGP FBP MAX % FOLD mean
Chain of PKR(G332S) (P30613 whole entry G332S): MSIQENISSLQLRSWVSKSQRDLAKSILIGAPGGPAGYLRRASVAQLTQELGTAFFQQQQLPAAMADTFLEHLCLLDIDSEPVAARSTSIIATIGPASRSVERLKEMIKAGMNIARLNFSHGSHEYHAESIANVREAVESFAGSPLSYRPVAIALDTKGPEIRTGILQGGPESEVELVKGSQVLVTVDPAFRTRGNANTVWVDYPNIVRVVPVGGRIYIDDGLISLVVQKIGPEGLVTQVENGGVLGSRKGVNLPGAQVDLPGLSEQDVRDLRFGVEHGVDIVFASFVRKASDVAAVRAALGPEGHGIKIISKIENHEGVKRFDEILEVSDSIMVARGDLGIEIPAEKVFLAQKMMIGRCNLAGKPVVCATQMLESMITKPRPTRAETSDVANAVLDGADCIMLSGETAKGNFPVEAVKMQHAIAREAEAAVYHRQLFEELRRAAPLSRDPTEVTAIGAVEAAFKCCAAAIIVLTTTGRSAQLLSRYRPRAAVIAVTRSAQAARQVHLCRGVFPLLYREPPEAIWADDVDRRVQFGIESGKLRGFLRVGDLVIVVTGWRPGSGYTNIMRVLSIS

[2] = target: PKR(R510Q) (Homo sapiens, UniProt P30613, R510Q); experiment: Luminescence Biochemical Assay (Kinase Glo Plus), PKR R510Q mutant; details: without FBP; for activation at 1.54 µM: 1.54 μM compound, read-out: AC50 LUM KGP woFBP % Fold@1.54 μM mean; for AC50: read-out: AC50 LUM KGP woFBP AC50 μM gmean; for Emax: read-out: AC50 LUM KGP woFBP MAX % FOLD mean
Chain of PKR(R510Q) (P30613 whole entry R510Q): as the sequence (P30613 whole entry G332S) above, with S332G, R510Q counted along it

[3] = target: PKR(wt) (Homo sapiens, UniProt P30613); experiment: Luminescence Biochemical Assay (Kinase Glo Plus), wild type PKR; details: without FBP; for activation at 1.54 µM: 1.54 μM compound, read-out: AC50 LUM KGP woFBP % Fold@1.54 μM mean; for AC50: read-out: AC50 LUM KGP woFBP AC50 μM gmean; for Emax: read-out: AC50 LUM KGP woFBP MAX % FOLD mean
Chain of PKR(wt) (P30613 whole entry): as the sequence (P30613 whole entry G332S) above, with S332G counted along it

Row | Structure (SMILES) | activation at 1.54 µM [1] | AC50 [1] | Emax [1] | activation at 1.54 µM [2] | AC50 [2] | Emax [2] | activation at 1.54 µM [3] | AC50 [3] | Emax [3]
1 | COc1ccccc1CNC(=O)N1CC2=C(C1)CN(S(=O)(=O)c1ccc(OC(F)F)cc1)C2 [Example 21-12, 5-[4-(Difluoromethoxy)benzenesulfonyl]-N-[(2-methoxyphenyl)methyl]-1H,2H,3H,4H,5H,6H-pyrrolo[3,4-c]pyrrole-2-carboxamide] | 75 to 250% | ≤ 0.1 µM | 75 to 250% | 250 to 50000% | 0.1 to 1 µM | 250 to 500% | 250 to 50000% | 0.1 to 1 µM | 250 to 500%
2 | CN1CCOc2ccc([C@H](O)C(=O)N3CC4=C(C3)CN(S(=O)(=O)c3ccc(OC(F)F)cc3)C4)cc21 (single isomer, unassigned) [Example 10-2] | 75 to 250% | ≤ 0.1 µM | 75 to 250% | 250 to 50000% | 0.1 to 1 µM | 250 to 500% | 250 to 50000% | ≤ 0.1 µM | 250 to 500%
3 | O=C(NCc1ccc(F)cc1)N1CC2=C(C1)CN(S(=O)(=O)c1ccc(C(F)(F)F)nc1)C2 [Example 21-39, N-[(4-fluorophenyl)methyl]-5-{[6-(trifluoromethyl)pyridin-3-yl]sulfonyl}-1H,2H,3H,4H,5H,6H-pyrrolo[3,4-c]pyrrole-2-carboxamide] | 75 to 250% | 1 to 40 µM | 75 to 250% | 75 to 250% | 1 to 40 µM | 75 to 250% | 75 to 250% | 1 to 40 µM | 75 to 250%
4 | O=C([C@@H](O)c1ccccn1)N1CC2=C(C1)CN(S(=O)(=O)c1ccc(OC(F)F)cc1)C2 (single isomer, unassigned) [Example 8-3] | 75 to 250% | 0.1 to 1 µM | 75 to 250% | 250 to 50000% | 0.1 to 1 µM | 250 to 500% | 250 to 50000% | 0.1 to 1 µM | 250 to 500%
5 | O=C(NCc1ccc(F)cc1)N1CC2=C(C1)CN(S(=O)(=O)c1ccc3ncsc3c1)C2 [Example 21-19, 5-(1,3-Benzothiazole-6-sulfonyl)-N-[(4-fluorophenyl)methyl]-1H,2H,3H,4H,5H,6H-pyrrolo[3,4-c]pyrrole-2-carboxamide] | 75 to 250% | 0.1 to 1 µM | 75 to 250% | 75 to 250% | 0.1 to 1 µM | 250 to 500% | 75 to 250% | 0.1 to 1 µM | 250 to 500%
6 | O=C(C(O)c1ccc(F)c(F)c1)N1CC2=C(C1)CN(S(=O)(=O)c1ccc(OC(F)F)cc1)C2 (stereo not drawn) [Example 18-23, 1-{5-[4-(Difluoromethoxy)benzenesulfonyl]-1H,2H,3H,4H,5H,6H-pyrrolo[3,4-c]pyrrol-2-yl}-2-(3,4-difluorophenyl)-2-hydroxyethan-1-one] | 75 to 250% | 0.1 to 1 µM | 75 to 250% | 250 to 50000% | 1 to 40 µM | 250 to 500% | 75 to 250% | 0.1 to 1 µM | 250 to 500%
7 | O=C([C@H]1CCCO1)N1CC2=C(C1)CN(S(=O)(=O)c1cccnc1)C2 [Example 18-59, 3-({5-[(2R)-oxolane-2-carbonyl]-1H,2H,3H,4H,5H,6H-pyrrolo[3,4-c]pyrrol-2-yl}sulfonyl)pyridine] | 75 to 250% | 1 to 40 µM | 75 to 250% | 75 to 250% | 1 to 40 µM | 75 to 250% | 75 to 250% | 1 to 40 µM | 75 to 250%
8 | Cc1cccc(Cl)c1S(=O)(=O)N1CC2=C(CN(C(=O)[C@@H](O)c3ccccc3)C2)C1 [Example 18-54, (2S)-1-[5-(2-chloro-6-methylbenzenesulfonyl)-1H,2H,3H,4H,5H,6H-pyrrolo[3,4-c]pyrrol-2-yl]-2-hydroxy-2-phenylethan-1-one] | 75 to 250% | 1 to 40 µM | 75 to 250% | 75 to 250% | 1 to 40 µM | 75 to 250% | 75 to 250% | 1 to 40 µM | 75 to 250%
9 | O=C([C@H](O)c1ccc(F)cc1)N1CC2=C(C1)CN(S(=O)(=O)c1cccnc1)C2 [Example 18-62, (2R)-2-(4-fluorophenyl)-2-hydroxy-1-[5-(pyridine-3-sulfonyl]-1H,2H,3H,4H,5H,6H-pyrrolo[3,4-c]pyrrol-2-yl]ethan-1-one] | 75 to 250% | 1 to 40 µM | 75 to 250% | 75 to 250% | 1 to 40 µM | 250 to 500% | 75 to 250% | 0.1 to 1 µM | 75 to 250%
10 | O=C([C@H](O)c1ccc2c(c1)CNCC2)N1CC2=C(C1)CN(S(=O)(=O)c1ccc(OC(F)F)cc1)C2 (single isomer, unassigned) [Example 11-2] | 75 to 250% | 0.1 to 1 µM | 75 to 250% | 250 to 50000% | ≤ 0.1 µM | 250 to 500% | 75 to 250% | ≤ 0.1 µM | 250 to 500%
11 | O=C(NCc1cccc(F)c1)N1CC2=C(C1)CN(S(=O)(=O)c1ccc(OC(F)F)cc1)C2 [Example 21-14, 5-[4-(Difluoromethoxy)benzenesulfonyl]-N-[(3-fluorophenyl)methyl]-1H,2H,3H,4H,5H,6H-pyrrolo[3,4-c]pyrrole-2-carboxamide] | 75 to 250% | 0.1 to 1 µM | 75 to 250% | 250 to 50000% | 1 to 40 µM | 250 to 500% | 250 to 50000% | 0.1 to 1 µM | 250 to 500%
12 | COc1cccc(CNC(=O)N2CC3=C(C2)CN(S(=O)(=O)c2ccc4ncsc4c2)C3)c1 [Example 21-17, 5-(1,3-Benzothiazole-6-sulfonyl)-N-[(3-methoxyphenyl)methyl]-1H,2H,3H,4H,5H,6H-pyrrolo[3,4-c]pyrrole-2-carboxamide] | 75 to 250% | ≤ 0.1 µM | 75 to 250% | 75 to 250% | 1 to 40 µM | 75 to 250% | 75 to 250% | ≤ 0.1 µM | 75 to 250%
13 | O=C(Cn1cnnn1)N1CC2=C(C1)CN(S(=O)(=O)c1cccnc1)C2 [Example 18-70, 1-[5-(Pyridine-3-sulfonyl)-1H,2H,3H,4H,5H,6H-pyrrolo[3,4-c]pyrrol-2-yl]-2-(1H-1,2,3,4-tetrazol-1-yl)ethan-1-one] | 75 to 250% | 1 to 40 µM | 75 to 250% | 75 to 250% | 1 to 40 µM | 75 to 250% | 75 to 250% | 1 to 40 µM | 75 to 250%
14 | O=C(Cc1cnccn1)N1CC2=C(C1)CN(S(=O)(=O)c1ccc(OC(F)F)cc1)C2 [Example 18-29, 1-{5-[4-(Difluoromethoxy)benzenesulfonyl]-1H,2H,3H,4H,5H,6H-pyrrolo[3,4-c]pyrrol-2-yl}-2-(pyrazin-2-yl)ethan-1-one] | 75 to 250% | ≤ 0.1 µM | 75 to 250% | 75 to 250% | 1 to 40 µM | 250 to 500% | 75 to 250% | 1 to 40 µM | 250 to 500%
15 | Cc1ccc(CC(=O)N2CC3=C(C2)CN(S(=O)(=O)c2ccccn2)C3)cn1 [Example 18-61, 2-(6-Methylpyridin-3-yl)-1-[5-(pyridine-2-sulfonyl)-1H,2H,3H,4H,5H,6H-pyrrolo[3,4-c]pyrrol-2-yl]ethan-1-one] | 75 to 250% | 1 to 40 µM | 75 to 250% | 75 to 250% | 1 to 40 µM | 250 to 500% | 75 to 250% | 1 to 40 µM | 250 to 500%
16 | CC[C@@H](O)C(=O)N1CC2=C(C1)CN(S(=O)(=O)c1ccc3c(c1)N(C)CCO3)C2 [Example 18-76, (2R)-2-hydroxy-1-{5-[(4-methyl-3,4-dihydro-2H-1,4-benzoxazin-6-yl)sulfonyl]-1H,2H,3H,4H,5H,6H-pyrrolo[3,4-c]pyrrol-2-yl}butan-1-one] | 75 to 250% | 1 to 40 µM | 75 to 250% | 75 to 250% | 1 to 40 µM | 75 to 250% | 75 to 250% | 0.1 to 1 µM | 75 to 250%
17 | O=C(NCc1ccccc1F)N1CC2=C(C1)CN(S(=O)(=O)c1ccc(OC(F)F)cc1)C2 [Example 21-15, 5-[4-(Difluoromethoxy)benzenesulfonyl]-N-[(2-fluorophenyl)methyl]-1H,2H,3H,4H,5H,6H-pyrrolo[3,4-c]pyrrole-2-carboxamide] | 75 to 250% | ≤ 0.1 µM | 75 to 250% | 250 to 50000% | ≤ 0.1 µM | 250 to 500% | 250 to 50000% | ≤ 0.1 µM | 250 to 500%
18 | CC(=O)Nc1cc(S(=O)(=O)N2CC3=C(CN(C(=O)[C@H](O)c4ccccc4)C3)C2)ccc1F [Example 14-1, (R)—N-(2-fluoro-5-((5-(2-hydroxy-2-phenylacetyl)-3,4,5,6-tetrahydropyrrolo[3,4-c]pyrrol-2(1H)-yl)sulfonyl)phenyl)acetamide] | 75 to 250% | 1 to 40 µM | 75 to 250% | 75 to 250% | 1 to 40 µM | 75 to 250% | 75 to 250% | 1 to 40 µM | 75 to 250%
